In patent US12383539B2 (Cavion, Inc., priority 2018, dated 2025):

Legend:
[1] = system: patients with essential tremor; assay: T-CALM: ECG, vital signs, laboratory and examination safety assessments; format: in vivo, human
Protocol: Electrocardiogram results were calculated as the average of the triplicate records at each time point. Baseline was defined as the mean of the triplicate values obtained pre-dose at Day 1. If this value was not available, the mean of the triplicate records obtained at screening were used.
Safety procedures involved collection of all TEAEs (treatment-emergent adverse events) coded into the Medical Dictionary for Regulatory Activities (MedDRA) version 20. Adverse events were classified by maximum severity, drug-related adverse events, serious adverse events, and adverse events leading to patient discontinuation.

[2] = Food effect: MR2 capsules fed vs fasted; format: in vivo, human; conditions: MR2 CX-8998, single 8 mg dose
From the text: Subjects will be screened for study eligibility within 28 days before administration of the first dose of study drug. Subjects who meet the study eligibility criteria will be admitted to the clinical research unit in the afternoon of the day before administration of the first dose of study drug (Period 1/Day −1).

SMILES: CC(C)c1ccc(CC(=O)N[C@H](C)c2ccc(OCC(F)(F)F)cn2)cc1 [CX-8998]
- integrated analysis of electrocardiogram outliers ([1]; T-CALM, efficacious doses): no CVS safety signals
- clinical laboratory parameters vs placebo ([1]; in vivo): No clinically meaningful differences
- vital signs, ECG, neurological and physical examinations ([1]; in vivo): No clinically significant abnormalities
- effect of fed state on overall exposure (AUC) [2]: does not appear to significantly impact overall exposure
- effect of fed vs fasted state on absorption [2]: impacts early absorption of the CX-8998, but does not appear to significantly impact late absorption
